Calls of active or inactive are those of the source.
Assays:
Tumor necrosis factor = Tumor necrosis factor (Homo sapiens, UniProt P01375); test: analog potency on TNFa NF-kB signaling – cell-based, revised, SAR follow-up (AID 2337); format: functional
[1] = target: Nucleotide-binding oligomerization domain-containing protein 1 (Homo sapiens, UniProt Q9Y239); test: blockers of NOD1 pathway activity – revised, SAR follow-up (AID 2333); format: functional
HEK293 = test: cells; settings: Homo sapiens;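 also: cells exposed to compound for 14 hours overnight before viability readout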
SUMO-activating enzyme [2] = target: T1, SUMO-activating enzyme (Homo sapiens, UniProt Q9UBT2); test: blockers of UBC9-mediated SUMO conjugation – biochemical, AlphaScreen, SUMOylation inhibitor project, confirmation (AID 2018); format: functional
[3] = target: Eukaryotic translation initiation factor 4E (Mus musculus, UniProt P63073); test: blockers of eIF4G binding by eIF4E – biochemical, TR-FRET, dose response (AID 855); format: functional;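 also: potency for disrupting eIF4E binding to eIF4GI seen as loss of FRET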
[4] = target: Induced myeloid leukemia cell differentiation protein Mcl-1 (Homo sapiens, UniProt Q07820); format: functional
Leucine aminopeptidase = target: T2, Leucine aminopeptidase (Plasmodium falciparum 3D7, UniProt Q8IL11); test: P. falciparum M17LAP inhibitors, primary screen, biochemical, fluorogenic H-Leu-NHMec substrate, 1536-well (AID 1619); format: functional
T2 sequence (Q8IL11 whole entry): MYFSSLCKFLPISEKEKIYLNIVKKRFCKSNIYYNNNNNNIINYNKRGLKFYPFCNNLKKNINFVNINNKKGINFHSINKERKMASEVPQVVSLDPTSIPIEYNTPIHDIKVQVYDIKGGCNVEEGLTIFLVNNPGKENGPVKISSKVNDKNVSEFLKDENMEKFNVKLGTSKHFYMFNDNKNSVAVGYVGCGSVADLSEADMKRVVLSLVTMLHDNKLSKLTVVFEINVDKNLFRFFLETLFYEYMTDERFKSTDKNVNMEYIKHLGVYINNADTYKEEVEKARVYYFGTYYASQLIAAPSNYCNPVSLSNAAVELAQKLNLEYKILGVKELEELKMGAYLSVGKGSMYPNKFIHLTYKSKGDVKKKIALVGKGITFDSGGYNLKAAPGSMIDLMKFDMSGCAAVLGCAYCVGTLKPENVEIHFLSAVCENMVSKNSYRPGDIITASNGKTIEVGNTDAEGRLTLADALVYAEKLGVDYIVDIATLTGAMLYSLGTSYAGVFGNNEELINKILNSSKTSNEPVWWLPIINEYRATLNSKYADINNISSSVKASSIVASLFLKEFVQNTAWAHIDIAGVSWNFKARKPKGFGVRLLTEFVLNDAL

[5] = target: T3, RNA-binding protein pos-1 (Caenorhabditis elegans, UniProt G5EF15); test: disruptors of C. elegans POS-1 RNA interaction – biochemical, fluorescence polarization, dose response (AID 1964);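 also: purified POS-1 fused to maltose binding protein made in E. coli; potency of compounds blocking POS-1 binding to fluorescent RNA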
T3 sequence (G5EF15 whole entry): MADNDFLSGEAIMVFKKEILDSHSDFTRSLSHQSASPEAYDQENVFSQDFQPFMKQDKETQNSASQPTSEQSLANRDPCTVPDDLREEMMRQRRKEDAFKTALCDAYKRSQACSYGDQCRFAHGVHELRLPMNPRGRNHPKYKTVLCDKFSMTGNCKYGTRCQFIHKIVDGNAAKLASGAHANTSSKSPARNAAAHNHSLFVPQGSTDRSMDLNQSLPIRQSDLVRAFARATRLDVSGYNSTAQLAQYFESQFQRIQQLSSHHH

[6] = target: T4, Zinc finger protein mex-5 (Caenorhabditis elegans, UniProt Q9XUB2); test: potency of MEX-5 RNA-binding blockers – biochemical, C. elegans, fluorescence polarization, dose response (AID 1960)
T4 sequence (Q9XUB2 whole entry): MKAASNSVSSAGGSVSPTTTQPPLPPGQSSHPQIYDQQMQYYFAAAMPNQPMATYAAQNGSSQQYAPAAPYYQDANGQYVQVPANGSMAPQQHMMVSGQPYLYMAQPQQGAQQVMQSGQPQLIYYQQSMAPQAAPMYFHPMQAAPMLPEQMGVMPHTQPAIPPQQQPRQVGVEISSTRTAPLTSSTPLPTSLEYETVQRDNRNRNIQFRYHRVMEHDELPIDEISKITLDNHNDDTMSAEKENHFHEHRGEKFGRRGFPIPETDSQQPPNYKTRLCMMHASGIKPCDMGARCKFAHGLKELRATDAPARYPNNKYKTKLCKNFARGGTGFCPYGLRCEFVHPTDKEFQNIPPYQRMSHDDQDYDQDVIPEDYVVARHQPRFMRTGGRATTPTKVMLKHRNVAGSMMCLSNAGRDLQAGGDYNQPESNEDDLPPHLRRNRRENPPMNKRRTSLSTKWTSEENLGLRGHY

SUMO-activating enzyme [7] = target: T1, SUMO-activating enzyme; test: blockers of SAE1/SAE2–UBC9 SUMO transfer – biochemical, HTRF, uHTS, primary screen (AID 2006); format: protein-complex assay
Vero = test: viability of Vero cells under compound – cytotoxicity control for flavivirus capping enzyme inhibitors (AID 588742); format: functional; settings: Chlorocebus sabaeus
Protein RecA = target: T5, Protein RecA (Mycobacterium tuberculosis, UniProt P9WHJ3); test: Fluorescence Cell-Free Homogeneous Dose Retest to Identify Inhibitors of RecA-Intein Splicing Activity. [Related pubchem assays (depositor defined):AID2097, AID2223, AID489010, AID492950]; format: functional
T5 sequence (P9WHJ3 whole entry): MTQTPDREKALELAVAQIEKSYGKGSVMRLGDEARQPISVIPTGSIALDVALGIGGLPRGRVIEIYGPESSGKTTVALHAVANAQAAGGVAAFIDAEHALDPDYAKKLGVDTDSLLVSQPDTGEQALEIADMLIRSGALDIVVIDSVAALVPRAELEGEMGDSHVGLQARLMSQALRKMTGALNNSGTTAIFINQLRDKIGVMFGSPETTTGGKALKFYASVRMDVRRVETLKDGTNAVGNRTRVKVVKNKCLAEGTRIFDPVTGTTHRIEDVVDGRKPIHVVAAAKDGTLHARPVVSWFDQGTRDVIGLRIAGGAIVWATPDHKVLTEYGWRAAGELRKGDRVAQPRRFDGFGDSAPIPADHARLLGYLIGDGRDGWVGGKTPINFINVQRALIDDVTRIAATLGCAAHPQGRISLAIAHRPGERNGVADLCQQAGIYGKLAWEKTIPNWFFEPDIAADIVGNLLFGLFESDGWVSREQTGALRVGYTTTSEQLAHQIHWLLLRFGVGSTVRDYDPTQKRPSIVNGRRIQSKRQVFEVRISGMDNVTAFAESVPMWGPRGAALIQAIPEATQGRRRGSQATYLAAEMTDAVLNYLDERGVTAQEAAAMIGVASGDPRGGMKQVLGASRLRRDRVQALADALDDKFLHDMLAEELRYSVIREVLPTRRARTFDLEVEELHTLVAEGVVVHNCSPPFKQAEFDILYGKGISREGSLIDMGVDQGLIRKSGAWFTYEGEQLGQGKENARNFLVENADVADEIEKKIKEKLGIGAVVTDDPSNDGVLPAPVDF

[8] = viability loss in HepG2 hepatoma cells – cell-based, ATP luminescence, cherry-pick, activator set 2, cytotoxicity control, dose response (AID 1053143); format: functional
[9] = Luminescence Cell-Based Dose Retest to Confirm Inhibitors of Cancer Stem Cells. [Related pubchem assays (depositor defined):AID2717, AID2721]; format: functional; settings: Homo sapiens
[10] = Intein inhibitors as potential Tuberculosis drugs, a cytotoxicity screen. [Related pubchem assays (depositor defined):AID2221, AID2223, AID434968, AID435010, AID449749, AID449750, AID489010]; format: functional
[11] = target: T6, Replicative DNA helicase DnaB (Mycobacterium tuberculosis, UniProt P9WMR3); test: DnaB intein splicing inhibitors, dose response, biochemical, cell-free fluorescence (AID 449749); format: functional
T6 sequence (P9WMR3 whole entry): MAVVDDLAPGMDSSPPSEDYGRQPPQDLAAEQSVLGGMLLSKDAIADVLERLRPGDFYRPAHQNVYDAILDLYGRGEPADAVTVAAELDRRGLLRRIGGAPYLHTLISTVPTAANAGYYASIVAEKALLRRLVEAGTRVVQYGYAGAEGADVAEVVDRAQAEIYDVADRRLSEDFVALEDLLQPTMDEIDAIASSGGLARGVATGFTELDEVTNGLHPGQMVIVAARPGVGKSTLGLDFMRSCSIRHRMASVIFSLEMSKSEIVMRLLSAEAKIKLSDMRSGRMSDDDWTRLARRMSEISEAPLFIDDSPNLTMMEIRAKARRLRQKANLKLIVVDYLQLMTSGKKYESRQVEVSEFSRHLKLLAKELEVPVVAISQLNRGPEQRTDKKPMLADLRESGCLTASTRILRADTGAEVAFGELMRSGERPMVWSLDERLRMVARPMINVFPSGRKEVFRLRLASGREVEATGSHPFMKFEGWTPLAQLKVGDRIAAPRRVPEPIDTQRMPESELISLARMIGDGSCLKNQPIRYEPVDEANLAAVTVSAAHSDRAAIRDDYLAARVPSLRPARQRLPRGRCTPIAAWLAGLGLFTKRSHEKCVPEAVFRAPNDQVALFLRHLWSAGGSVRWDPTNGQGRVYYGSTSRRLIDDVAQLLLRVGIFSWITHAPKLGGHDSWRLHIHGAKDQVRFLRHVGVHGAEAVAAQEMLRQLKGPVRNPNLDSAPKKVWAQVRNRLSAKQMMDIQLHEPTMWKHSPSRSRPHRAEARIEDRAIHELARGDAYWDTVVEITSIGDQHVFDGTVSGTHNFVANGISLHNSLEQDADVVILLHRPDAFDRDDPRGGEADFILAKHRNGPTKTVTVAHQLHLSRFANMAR

Genome polyprotein = Genome polyprotein (dengue virus type 2, UniProt P29990); test: flavivirus cap methylation enzyme inhibition – biochemical, confirmation dose response, primary screen (AID 588689); format: functional
INS1 = test: INS-1E survival protection against cytokine death – cell-based, luminescence, retest, dose response (AID 449756); format: functional; settings: Rattus norvegicus;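 also: cell death triggered by IL-1 beta plus TNF-alpha plus IFN-gamma mixture; protective hits raise ATP signal compared with cytokine alone wells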
[12] = target: T7, Kappa-type opioid receptor (Homo sapiens, UniProt P41145); test: SAR analysis of small molecule antagonists of the kappa opioid receptor via a luminescent beta-arrestin assay - Set 4. [Related pubchem assays (depositor defined):AID1777, AID1778, AID1785, AID1786, AID1966, AID2133, AID2136, AID2285]; format: functional
[13] = target: Delta-type opioid receptor (Homo sapiens, UniProt P41143); test: SAR Analysis of Antagonists of the DOR Receptor using an Image-Based Assay - Set 3. [Related pubchem assays (depositor defined):AID1777, AID1785]; format: functional;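 also: U2OS cells expressing DOR1 and beta-arrestin GFP stimulated with 100 nM SNC80; imaging of GFP-tagged beta-arrestin moving into spots after receptor activation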
Mu-type opioid receptor = Mu-type opioid receptor (Homo sapiens, UniProt P35372); test: SAR Analysis of Antagonists of the MOR Receptor using an Image-Based Assay - Set 3. [Related pubchem assays (depositor defined):AID1777, AID1785, AID1786, AID1966, AID2133, AID2136, AID2284, AID2285, AID2420]; format: functional
[14] = target: T7, Kappa-type opioid receptor; test: SAR analysis of Antagonists of the Kappa Opioid Receptor (KOR) using an Image-Based Assay - Set 4. [Related pubchem assays (depositor defined):AID1777, AID1785]; format: functional
[15] = target: 1-acylglycerol-3-phosphate O-acyltransferase ABHD5/Perilipin-5 (Homo sapiens, UniProt Q00G26+Q8WTS1); test: Luminescence-based biochemical high throughput dose response assay for inhibitors of the interaction of the lipase co-activator protein, abhydrolase domain containing 5 (ABHD5) with perilipin-5 (MLDP; PLIN5) (2K validation set). [Related pubchem assays (depositor defined):AID493035, AID493241]
Perilipin-1/ABHD5 = Perilipin-1/ABHD5 (Homo sapiens, UniProt O60240+Q8WTS1); test: Luminescence-based biochemical high throughput dose response assay for inhibitors of the interaction of the lipase co-activator protein, abhydrolase domain containing 5 (ABHD5) with perilipin-1 (PLIN1) (2K validation set). [Related pubchem assays (depositor defined):AID493027, AID493057]
T-cell = test: loss of vesicle association with mouse CD8+ T cells – mouse 2C CD8+ T cells, flow cytometry, dose response (AID 485284); format: functional
[16] = protection from phage-mediated lysis, alamar blue read-out – E. coli UTI89, K1F phage, bacterial capsule biogenesis inhibitors (AID 488966); format: functional
[17] = target: T7, Kappa-type opioid receptor; test: SAR analysis of small molecule antagonists of the kappa opioid receptor via a luminescent beta-arrestin assay - Set 3. [Related pubchem assays (depositor defined):AID1777, AID1778, AID1785, AID1786, AID1966, AID2133, AID2136, AID2285, AID2495]; format: functional
[18] = target: T7, Kappa-type opioid receptor; test: SAR analysis of Antagonists of the Kappa Opioid Receptor (KOR) using an Image-Based Assay - Set 3. [Related pubchem assays (depositor defined):AID1777, AID1785]; format: functional

T7 sequence (P41145 whole entry): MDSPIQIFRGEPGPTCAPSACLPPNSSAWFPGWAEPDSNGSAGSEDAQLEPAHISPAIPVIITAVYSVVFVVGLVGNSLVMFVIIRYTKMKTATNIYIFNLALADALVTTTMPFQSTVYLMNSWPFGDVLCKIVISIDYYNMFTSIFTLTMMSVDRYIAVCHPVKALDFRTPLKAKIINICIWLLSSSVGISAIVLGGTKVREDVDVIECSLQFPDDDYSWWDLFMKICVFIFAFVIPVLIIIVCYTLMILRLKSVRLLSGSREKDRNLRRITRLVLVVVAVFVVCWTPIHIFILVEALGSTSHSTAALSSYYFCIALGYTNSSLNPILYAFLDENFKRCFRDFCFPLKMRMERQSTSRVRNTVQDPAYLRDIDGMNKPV
Mu-type opioid receptor, sequence (P35372 whole entry): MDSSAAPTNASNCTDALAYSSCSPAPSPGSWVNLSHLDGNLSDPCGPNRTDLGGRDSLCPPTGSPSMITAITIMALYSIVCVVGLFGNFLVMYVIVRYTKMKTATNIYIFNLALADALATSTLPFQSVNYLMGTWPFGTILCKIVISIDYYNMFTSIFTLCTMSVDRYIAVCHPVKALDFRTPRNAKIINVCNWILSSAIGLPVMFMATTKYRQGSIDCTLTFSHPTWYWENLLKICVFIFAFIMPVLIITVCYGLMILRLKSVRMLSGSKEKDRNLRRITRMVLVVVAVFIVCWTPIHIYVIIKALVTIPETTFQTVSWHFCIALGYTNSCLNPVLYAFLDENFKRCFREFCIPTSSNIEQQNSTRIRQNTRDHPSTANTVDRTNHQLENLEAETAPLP
T1 sequence (Q9UBE0 whole entry): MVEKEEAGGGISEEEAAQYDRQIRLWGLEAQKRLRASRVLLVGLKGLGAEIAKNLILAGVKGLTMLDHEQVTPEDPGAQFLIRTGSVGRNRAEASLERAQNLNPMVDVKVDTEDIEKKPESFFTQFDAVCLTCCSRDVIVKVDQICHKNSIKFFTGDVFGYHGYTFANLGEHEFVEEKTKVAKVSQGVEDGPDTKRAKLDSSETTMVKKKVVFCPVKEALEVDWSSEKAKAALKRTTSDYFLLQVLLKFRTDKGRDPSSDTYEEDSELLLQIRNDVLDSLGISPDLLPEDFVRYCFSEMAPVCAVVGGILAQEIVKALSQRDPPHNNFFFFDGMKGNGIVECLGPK
T1 sequence (Q9UBT2 whole entry): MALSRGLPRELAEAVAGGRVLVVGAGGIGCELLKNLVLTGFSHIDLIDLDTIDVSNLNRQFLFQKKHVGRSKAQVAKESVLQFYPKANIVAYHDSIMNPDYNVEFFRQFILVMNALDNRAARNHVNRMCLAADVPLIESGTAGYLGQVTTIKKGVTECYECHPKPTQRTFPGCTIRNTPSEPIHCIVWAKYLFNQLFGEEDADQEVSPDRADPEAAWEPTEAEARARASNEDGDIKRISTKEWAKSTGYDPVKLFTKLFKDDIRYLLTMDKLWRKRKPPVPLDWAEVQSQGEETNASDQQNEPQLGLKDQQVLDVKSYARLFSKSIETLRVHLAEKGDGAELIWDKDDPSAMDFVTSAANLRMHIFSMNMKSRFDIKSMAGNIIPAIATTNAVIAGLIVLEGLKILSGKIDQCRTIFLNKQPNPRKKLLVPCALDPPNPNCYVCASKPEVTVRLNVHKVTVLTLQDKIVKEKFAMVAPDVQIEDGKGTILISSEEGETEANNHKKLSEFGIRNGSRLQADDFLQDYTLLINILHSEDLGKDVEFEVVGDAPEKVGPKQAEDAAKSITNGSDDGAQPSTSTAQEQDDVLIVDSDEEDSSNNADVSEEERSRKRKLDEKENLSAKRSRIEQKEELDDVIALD
Delta-type opioid receptor, sequence (P41143 whole entry): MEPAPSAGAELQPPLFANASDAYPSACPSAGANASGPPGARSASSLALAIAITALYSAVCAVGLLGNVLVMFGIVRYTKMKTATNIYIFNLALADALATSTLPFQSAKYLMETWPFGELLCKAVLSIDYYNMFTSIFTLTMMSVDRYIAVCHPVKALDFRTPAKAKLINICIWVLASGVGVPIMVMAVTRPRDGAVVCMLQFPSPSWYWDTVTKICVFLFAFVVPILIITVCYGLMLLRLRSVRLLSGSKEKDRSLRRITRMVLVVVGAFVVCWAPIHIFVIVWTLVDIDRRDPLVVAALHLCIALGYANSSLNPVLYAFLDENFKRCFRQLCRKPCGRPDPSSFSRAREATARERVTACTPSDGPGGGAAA
Tumor necrosis factor, sequence (P01375 whole entry, the tested form may be a part): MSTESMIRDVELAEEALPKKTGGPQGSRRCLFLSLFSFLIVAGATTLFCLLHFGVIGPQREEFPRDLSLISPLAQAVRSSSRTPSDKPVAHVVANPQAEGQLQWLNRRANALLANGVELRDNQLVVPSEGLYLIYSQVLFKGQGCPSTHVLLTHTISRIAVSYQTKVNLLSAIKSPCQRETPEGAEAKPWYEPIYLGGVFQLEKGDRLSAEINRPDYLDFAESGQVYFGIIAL
Eukaryotic translation initiation factor 4E, sequence (P63073 whole entry): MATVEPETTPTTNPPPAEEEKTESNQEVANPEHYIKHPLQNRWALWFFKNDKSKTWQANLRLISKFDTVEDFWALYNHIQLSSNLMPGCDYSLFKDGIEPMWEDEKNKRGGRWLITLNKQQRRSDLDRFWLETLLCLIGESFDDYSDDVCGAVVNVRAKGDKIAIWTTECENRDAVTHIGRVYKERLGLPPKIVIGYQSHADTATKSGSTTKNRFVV
Nucleotide-binding oligomerization domain-containing protein 1, sequence (Q9Y239 whole entry, the tested form may be a part): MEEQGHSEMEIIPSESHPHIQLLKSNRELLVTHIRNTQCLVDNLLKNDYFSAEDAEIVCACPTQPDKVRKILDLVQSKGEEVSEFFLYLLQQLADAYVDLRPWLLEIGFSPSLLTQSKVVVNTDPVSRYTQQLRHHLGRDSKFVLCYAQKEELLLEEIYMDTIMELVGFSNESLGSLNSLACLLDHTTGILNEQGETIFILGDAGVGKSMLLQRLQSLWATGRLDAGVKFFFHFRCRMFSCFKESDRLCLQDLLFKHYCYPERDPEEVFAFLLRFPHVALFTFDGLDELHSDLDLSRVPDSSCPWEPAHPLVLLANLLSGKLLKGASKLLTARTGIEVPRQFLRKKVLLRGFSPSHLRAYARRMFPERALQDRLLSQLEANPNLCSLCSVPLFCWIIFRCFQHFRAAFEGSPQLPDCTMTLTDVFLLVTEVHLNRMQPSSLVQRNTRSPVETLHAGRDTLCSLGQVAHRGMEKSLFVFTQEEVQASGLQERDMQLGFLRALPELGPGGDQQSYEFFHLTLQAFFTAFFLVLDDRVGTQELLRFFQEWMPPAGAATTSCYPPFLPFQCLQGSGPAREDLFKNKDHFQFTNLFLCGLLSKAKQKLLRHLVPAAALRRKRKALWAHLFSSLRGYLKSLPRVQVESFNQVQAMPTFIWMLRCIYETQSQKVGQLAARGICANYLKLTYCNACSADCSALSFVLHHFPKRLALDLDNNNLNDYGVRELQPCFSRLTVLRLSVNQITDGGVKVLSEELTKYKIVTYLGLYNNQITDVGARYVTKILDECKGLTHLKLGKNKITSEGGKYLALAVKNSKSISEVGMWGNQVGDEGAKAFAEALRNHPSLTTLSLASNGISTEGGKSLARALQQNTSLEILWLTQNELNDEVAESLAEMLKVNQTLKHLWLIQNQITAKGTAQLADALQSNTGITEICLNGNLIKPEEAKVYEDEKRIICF
Genome polyprotein, sequence (P29990 2492-3391 limits assumed): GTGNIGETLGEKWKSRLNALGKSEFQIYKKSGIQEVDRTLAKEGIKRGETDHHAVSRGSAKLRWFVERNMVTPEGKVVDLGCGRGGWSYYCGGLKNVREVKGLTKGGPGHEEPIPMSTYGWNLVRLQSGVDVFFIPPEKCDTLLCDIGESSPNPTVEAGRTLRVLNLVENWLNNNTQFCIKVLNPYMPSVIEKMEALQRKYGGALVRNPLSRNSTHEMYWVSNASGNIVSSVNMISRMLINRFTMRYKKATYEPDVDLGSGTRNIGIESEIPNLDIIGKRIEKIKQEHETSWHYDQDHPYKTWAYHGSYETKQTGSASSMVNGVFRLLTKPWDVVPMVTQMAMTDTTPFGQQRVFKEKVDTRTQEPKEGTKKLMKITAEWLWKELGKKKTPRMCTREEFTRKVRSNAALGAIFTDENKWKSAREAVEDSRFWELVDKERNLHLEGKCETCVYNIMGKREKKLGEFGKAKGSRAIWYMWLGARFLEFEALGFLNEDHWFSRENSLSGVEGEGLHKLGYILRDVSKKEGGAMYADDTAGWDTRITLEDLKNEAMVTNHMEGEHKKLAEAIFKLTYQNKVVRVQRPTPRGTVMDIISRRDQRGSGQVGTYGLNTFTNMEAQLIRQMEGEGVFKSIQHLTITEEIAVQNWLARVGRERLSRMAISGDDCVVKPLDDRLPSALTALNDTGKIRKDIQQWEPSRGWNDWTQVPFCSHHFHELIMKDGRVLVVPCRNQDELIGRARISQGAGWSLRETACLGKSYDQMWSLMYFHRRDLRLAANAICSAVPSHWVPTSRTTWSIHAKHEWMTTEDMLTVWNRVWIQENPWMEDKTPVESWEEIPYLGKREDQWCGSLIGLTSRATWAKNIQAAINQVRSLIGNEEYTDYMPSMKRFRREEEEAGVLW
Induced myeloid leukemia cell differentiation protein Mcl-1, sequence (Q07820 whole entry): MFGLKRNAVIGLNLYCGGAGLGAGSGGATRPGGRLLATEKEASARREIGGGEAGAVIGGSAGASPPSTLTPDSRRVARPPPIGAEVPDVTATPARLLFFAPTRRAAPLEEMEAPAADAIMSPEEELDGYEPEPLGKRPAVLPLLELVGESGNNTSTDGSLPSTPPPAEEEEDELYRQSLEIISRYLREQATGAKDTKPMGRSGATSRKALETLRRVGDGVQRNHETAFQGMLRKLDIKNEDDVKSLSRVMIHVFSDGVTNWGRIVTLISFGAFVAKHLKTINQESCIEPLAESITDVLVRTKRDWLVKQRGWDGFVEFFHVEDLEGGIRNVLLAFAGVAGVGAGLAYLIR

CC1CCc2c(sc(NC(=O)c3ccc(Cl)cc3)c2C(=O)O)C1 (stereo unspecified)
IC50 (Tumor necrosis factor): 4.41 µM (active)
IC50 [1]: 1.37 µM (active)
IC50 (HEK293): 5.2 µM (active)

CC1=C(C#N)C(=O)NC(=O)/C1=C\c1ccc(-c2ccc(C)cc2[N+](=O)[O-])o1
IC50 (SUMO-activating enzyme [2]): 5.46 µM (active)
IC50 [3]: 50 µM (inactive)
IC50 [4]: 2.68 µM (active)
IC50 (Leucine aminopeptidase): 13.1 µM (active)
EC50 [5]: 36.4 µM (active)
EC50 [6]: 21.8 µM (active)
IC50 (SUMO-activating enzyme [7]): 35.6 µM (active)

COC(=O)c1sc(-c2ccc(C(C)(C)C)cc2)cc1NC(=O)/C=C/C(=O)O
CC50 (Vero): 14.1 µM (active)
EC50 (Protein RecA): 0.701 µM (active)
AC50 [8]: 23.4 µM (active)
AC50 [9]: 3.96 µM (active)
CC50 [10]: 11.5 µM (active)
AC50 [11]: 2.55 µM (active)
IC50 (Genome polyprotein): 65.2 µM (active)
AC50 (INS1): 4.68 µM (active)

CCC(C)(C)c1ccc(S(=O)(=O)NCc2ccc(C(=O)NCCN(Cc3ccccc3)C(C)C)cc2)cc1
IC50 [12]: 1.19 µM (active)
IC50 [13]: > 32 µM (inactive)
IC50 (Mu-type opioid receptor): > 32 µM (inactive)
IC50 [14]: 0.57 µM (active)

COC(=O)[C@@H](N)CS
IC50 [15]: 4.64 µM (active)
IC50 (Perilipin-1/ABHD5): 7.34 µM (active)

CCOC(=O)c1c(C=O)c2ccccc2n1CC
EC50 (T-cell): 27.8 µM (inactive)

O=C(N/N=C/c1cccc(O)c1)c1ccc(COc2ccccc2Br)cc1
IC50 [16]: > 150 µM (active)
AC50 [9]: 4.82 µM (active)

CCc1ccc(S(=O)(=O)NCc2ccc(C(=O)NCCN(CC)Cc3ccccc3)cc2)cc1
IC50 [13]: > 32 µM (inactive)
IC50 (Mu-type opioid receptor): 19.5 µM (inactive)
IC50 [17]: 14.4 µM (inactive)
IC50 [18]: 1.99 µM (active)

From ChEMBL document CHEMBL1201862, “PubChem BioAssay data set” (2004)
